The subject of assay [1] is Human immunodeficiency virus 1. Kind of assay: Substrate activity at HIV1 reverse transcriptase assessed as incorporation of compound into growing DNA strand at 500 uM incubated for 1 hr using primer and template in presence of MgCl2 by gel based nucleotide incorporation assay.
Assay [2] deals with Human immunodeficiency virus 1. Kind of assay: Inhibition of HIV1 reverse transcriptase assessed as reduction in dsDNA synthesis at 2.5 mM incubated for 1 hr by PicoGreen-based spectrophotometric assay.
Assay [3] relates to Human immunodeficiency virus 1. Nature of the assay: Substrate activity at HIV1 reverse transcriptase assessed as incorporation of compound into growing DNA strand at 1 mM incubated for 1 hr using primer and template in presence of MnCl2 by gel based nucleotide incorporation assay.
The test system of assay [4] is Human immunodeficiency virus 1. Nature of the assay: Substrate activity at HIV1 reverse transcriptase assessed as incorporation of compound into growing DNA strand at 500 to 1000 uM incubated for 1 hr using primer and template in presence of MgCl2 by gel based nucleotide incorporation assay. As to conditions: dose 500-1000 µM.
The test system of assay [5] is Human immunodeficiency virus 1. Kind of assay: Substrate activity at HIV1 reverse transcriptase assessed as incorporation of compound into growing DNA strand at 500 to 1000 uM incubated for 1 hr using primer and template in presence of MnCl2 by gel based nucleotide incorporation assay. As to conditions: dose 500-1000 µM.
Assay [6] deals with Human immunodeficiency virus 1. Nature of the assay: Substrate activity at HIV1 reverse transcriptase assessed as incorporation of compound into growing DNA strand at 500 uM incubated for 1 hr using primer and template in presence of MnCl2 by gel based nucleotide incorporation assay.
The nature of assay [7]: Inhibition of HIV1 reverse transcriptase assessed as reduction in dsDNA synthesis incubated for 1 hr by PicoGreen-based spectrophotometric assay. Also on record: species or system Human immunodeficiency virus 1.

Each structure is given as a SMILES string. Activity calls are given as the source filed them. The rule behind the calls is not given here.

`Nc1ncnc2c1ncn2[C@H]1C[C@H](O)[C@@H](COP(=O)(O)O)O1`: the outcome in assay [1] was Active.

For the compound `C[C@H](Cn1cnc2c(N)ncnc21)OCP(=O)(O)N[C@H](CC(=O)O)C(=O)O`, the result in assay [1] was Active. Further, the “inhibition (active/not active)” value in assay [2] is “inactive”.

In the case of `C[C@H](Cn1cnc2c(N)ncnc21)OCP(=O)(O)N[C@@H](Cc1c[nH]cn1)C(=O)O`, the result in assay [3] was Active. In addition, in assay [2], the “inhibition (active/not active)” value was “inactive”.

As for `C[C@H](Cn1cnc2c(N)ncnc21)OCP(=O)(O)N[C@@H](Cc1ccccc1)C(=O)O`, in assay [3], the outcome was Active. The “inhibition (active/not active)” value in assay [2] is “inactive”.

With `Nc1ncnc2c1ncn2[C@H]1C[C@H](O)[C@@H](COP(=O)(O)N[C@@H](CC(=O)O)C(=O)O)O1`, the result in assay [4] and in assay [5] was Active. In addition, the “inhibition (active/not active)” value in assay [2] is “inactive”.

`CSCC[C@H](NP(=O)(O)OC[C@H]1O[C@@H](n2cnc3c(N)ncnc32)C[C@@H]1O)C(=O)O`: the outcome in assay [4] and in assay [5] was inactive. In addition, the “inhibition (active/not active)” value in assay [2] was “inactive”.

As for `C[C@H](Cn1cnc2c(N)ncnc21)OCP(=O)(O)O`, the result in assay [1] was inactive.

For `C[C@H](Cn1cnc2c(N)ncnc21)OCP(=O)(O)N[C@@H](CC(=O)O)C(=O)O`, the result in assay [3] was Active. In assay [2], the “inhibition (active/not active)” value is “inactive”.

Take `C[C@H](Cn1cnc2c(N)ncnc21)OCP(=O)(O)N[C@@H](CCC(=O)O)C(=O)O`: the Activity in assay [1] worked out at 26.8%; in assay [6], 40.8%. Besides, the “inhibition (active/not active)” value in assay [2] is “inactive”.

The IC50 is the midpoint of a concentration-inhibition curve. Turning to `CSCC[C@H](NP(=O)(O)CO[C@H](C)Cn1cnc2c(N)ncnc21)C(=O)O`, the “inhibition (active/not active)” value in assay [2] was “Active”. Further, in assay [7], the IC50 came out at 146 µM.

Take `N=C(N)NCCC[C@H](NP(=O)(O)OC[C@H]1O[C@@H](n2cnc3c(N)ncnc32)C[C@@H]1O)C(=O)O`: the result in assay [4] and in assay [5] was inactive. Also, the “inhibition (active/not active)” value in assay [2] is “inactive”.

`C[C@H](Cn1cnc2c(N)ncnc21)OCP(=O)(O)N[C@@H](CCCNC(=N)N)C(=O)O`: the result in assay [3] was inactive. The “inhibition (active/not active)” value in assay [2] was “inactive”.

In the case of `Nc1ncnc2c1ncn2[C@H]1C[C@H](O)[C@@H](COP(=O)(O)N[C@@H](Cc2ccccc2)C(=O)O)O1`, the result in assay [4] and in assay [5] was inactive. The “inhibition (active/not active)” value in assay [2] is “inactive”.

(Values after ChEMBL document CHEMBL4765472, “Tenofovir-Amino Acid Conjugates Act as Polymerase Substrates-Implications for Avoiding Cellular Phosphorylation in the Discovery of Nucleotide Analogues” (J Med Chem, 2021).)
